Assay results: US8415272B2, “Quinoline derivatives and their use as fungicides” (Syngenta Crop Protection LLC, priority 2008, dated 2013)

Experiments:
Phytophthora infestans = assay: whole plant or invertebrate; assay type: in vivo; conditions: in Solanum lycopersicum, foliar, 96 h, read-out: control of fungal infection, Phytophthora infestans
Plasmopara viticola = assay: Leaf disk assay, Plasmopara viticola (downy mildew of grapevine), preventive; assay type: in vivo; conditions: foliar, 168 h, grapevine leaf disks, assessed seven days after inoculation, read-out: control of fungal infection, Plasmopara viticola
[1] = test system: Erysiphe graminis f.sp. tritici; assay: Leaf disk assay, Erysiphe graminis f.sp. tritici (wheat powdery mildew), preventive; assay type: in vivo; conditions: Blumeria graminis, foliar, 96 h, wheat leaf segments, assessed four days after inoculation, read-out: control of fungal infection, Erysiphe graminis f.sp. tritici
Summary of the method: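 Preventive protocol: compound at 200 ppm in water (from DMSO) sprayed onto wheat leaf segments on agar, dried 12–24 h, then spore-inoculated. Fungicidal activity was assessed four days post-inoculation.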

[2] = test system: Puccinia recondita f.sp. tritici; assay: Leaf disk assay, Puccinia recondita f.sp. tritici (wheat brown rust), preventive; assay type: in vivo; conditions: foliar, 216 h, wheat leaf segments, assessed nine days after inoculation, read-out: control of fungal infection, Puccinia recondita f.sp. tritici
Pyrenophora teres = assay: Leaf disk assay, Pyrenophora teres (barley net blotch), preventive; assay type: in vivo; conditions: foliar, 96 h, barley leaf segments, assessed four days after inoculation, read-out: control of fungal infection, Pyrenophora teres
Protocol: The compounds were tested in a leaf disk assay, with methods described below. The test compounds were dissolved in DMSO and diluted into water to 200 ppm. In the case of the test on Pythium ultimum, they were dissolved in DMSO and diluted into water to 20 ppm. Pyrenophora teres (barley net blotch): Barley leaf segments were placed on agar in a 24-well plate and sprayed with a solution of the test compound. After allowing to dry completely, for between 12 and 24 hours, the leaf disks were inoculated with a spore suspension of the fungus. After appropriate incubation the activity of a compound was assessed four days after inoculation as preventive fungicidal activity.

Septoria nodorum = assay: Leaf disk assay, Septoria nodorum (wheat glume blotch), preventive; assay type: in vivo; conditions: Parastagonospora nodorum, foliar, 96 h, wheat leaf segments, assessed four days after inoculation, read-out: control of fungal infection, Septoria nodorum
Septoria tritici = assay: Growth inhibition in nutrient broth, Septoria tritici (leaf blotch), photometric; assay type: cell-based; conditions: Zymoseptoria tritici, PDB broth, 24 C, 72 hrs, read-out: control of fungal infection, Septoria tritici
Fusarium culmorum = assay: Growth inhibition in nutrient broth, Fusarium culmorum (root rot), photometric; assay type: cell-based; conditions: 48 h, read-out: control of fungal infection, Fusarium culmorum
Summary of the method: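 Fusarium culmorum conidia in potato dextrose broth were added to compounds in DMSO. Plates were incubated at 24 C for 48 hrs, with growth inhibition read photometrically. […]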

Pythium ultimum = assay: Growth inhibition in potato dextrose broth, Pythium ultimum (damping off), photometric; assay type: cell-based; conditions: Globisporangium ultimum, 24° C., 48 hours, read-out: control of fungal infection, Pythium ultimum
Summary of the method: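 Growth inhibition was read photometrically at 48 hours after incubation at 24° C. Test compound was diluted from DMSO to 20 ppm in water and combined with potato dextrose broth seeded with Pythium ultimum mycelial fragments.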

C#Cc1cnc2c(Cl)cc(OC(SC)C(=O)NC(C)(C)C)cc2c1 (stereo not drawn) [Example 18]
≥ 60%: pest or weed control at 200 ppm (Phytophthora infestans) | pest or weed control at 200 ppm (Plasmopara viticola) | pest or weed control at 200 ppm [1] | pest or weed control at 200 ppm [2] | pest or weed control at 200 ppm (Pyrenophora teres) | pest or weed control at 200 ppm (Septoria nodorum) | inhibition of growth at 60 ppm (Septoria tritici) | inhibition of growth at 60 ppm (Fusarium culmorum) | inhibition of growth at 20 ppm (Pythium ultimum)

C#Cc1cnc2ccc(OC(SC)C(=O)NC(C)(C)C#C)cc2c1 (stereo not drawn) [Example 21]
≥ 60%: pest or weed control at 200 ppm (Phytophthora infestans) | pest or weed control at 200 ppm (Plasmopara viticola) | pest or weed control at 200 ppm [1] | pest or weed control at 200 ppm [2] | pest or weed control at 200 ppm (Pyrenophora teres) | pest or weed control at 200 ppm (Septoria nodorum) | inhibition of growth at 60 ppm (Septoria tritici) | inhibition of growth at 60 ppm (Fusarium culmorum) | inhibition of growth at 20 ppm (Pythium ultimum)

C#Cc1cnc2ccc(OC(SC)C(=O)NC(C)(C)C#CC)cc2c1 (stereo not drawn) [Example 22]
≥ 60%: pest or weed control at 200 ppm (Phytophthora infestans) | pest or weed control at 200 ppm (Plasmopara viticola) | pest or weed control at 200 ppm [1] | pest or weed control at 200 ppm [2] | pest or weed control at 200 ppm (Pyrenophora teres) | pest or weed control at 200 ppm (Septoria nodorum) | inhibition of growth at 60 ppm (Septoria tritici) | inhibition of growth at 60 ppm (Fusarium culmorum) | inhibition of growth at 20 ppm (Pythium ultimum)

C#Cc1cnc2ccc(OC(SC)C(=O)NC(C)(C)C#CCOC)cc2c1 (stereo not drawn) [Example 23]
≥ 60%: pest or weed control at 200 ppm (Phytophthora infestans) | pest or weed control at 200 ppm (Plasmopara viticola) | pest or weed control at 200 ppm [1] | pest or weed control at 200 ppm [2] | pest or weed control at 200 ppm (Pyrenophora teres) | pest or weed control at 200 ppm (Septoria nodorum) | inhibition of growth at 60 ppm (Septoria tritici) | inhibition of growth at 60 ppm (Fusarium culmorum) | inhibition of growth at 20 ppm (Pythium ultimum)

C#CCOCC#CC(C)(C)NC(=O)C(Oc1ccc2ncc(C#C)cc2c1)SC (stereo not drawn) [Example 24]
≥ 60%: pest or weed control at 200 ppm (Phytophthora infestans) | pest or weed control at 200 ppm (Plasmopara viticola) | pest or weed control at 200 ppm [1] | pest or weed control at 200 ppm [2] | pest or weed control at 200 ppm (Pyrenophora teres) | pest or weed control at 200 ppm (Septoria nodorum) | inhibition of growth at 60 ppm (Septoria tritici) | inhibition of growth at 60 ppm (Fusarium culmorum) | inhibition of growth at 20 ppm (Pythium ultimum)

C#Cc1cnc2ccc(OC(SC)C(=O)NC(C)(C)COC)cc2c1 (stereo not drawn) [Example 29]
≥ 60%: pest or weed control at 200 ppm (Phytophthora infestans) | pest or weed control at 200 ppm (Plasmopara viticola) | pest or weed control at 200 ppm [1] | pest or weed control at 200 ppm [2] | pest or weed control at 200 ppm (Pyrenophora teres) | pest or weed control at 200 ppm (Septoria nodorum) | inhibition of growth at 60 ppm (Septoria tritici) | inhibition of growth at 60 ppm (Fusarium culmorum) | inhibition of growth at 20 ppm (Pythium ultimum)

C#Cc1cnc2c(C)cc(OC(SC)C(=O)NC(C)(C)CF)cc2c1 (stereo not drawn) [Example 93]
≥ 60%: pest or weed control at 200 ppm (Phytophthora infestans) | pest or weed control at 200 ppm (Plasmopara viticola) | pest or weed control at 200 ppm [1] | pest or weed control at 200 ppm [2] | pest or weed control at 200 ppm (Pyrenophora teres) | pest or weed control at 200 ppm (Septoria nodorum) | inhibition of growth at 60 ppm (Septoria tritici) | inhibition of growth at 60 ppm (Fusarium culmorum) | inhibition of growth at 20 ppm (Pythium ultimum)

C#Cc1cnc2ccc(OC(SC)C(=O)NC(C)(C)CC)cc2c1 (stereo not drawn) [Example 94]
≥ 60%: pest or weed control at 200 ppm (Phytophthora infestans) | pest or weed control at 200 ppm (Plasmopara viticola) | pest or weed control at 200 ppm [1] | pest or weed control at 200 ppm [2] | pest or weed control at 200 ppm (Pyrenophora teres) | pest or weed control at 200 ppm (Septoria nodorum) | inhibition of growth at 60 ppm (Septoria tritici) | inhibition of growth at 60 ppm (Fusarium culmorum) | inhibition of growth at 20 ppm (Pythium ultimum)

C#Cc1cnc2ccc(OC(SC)C(=O)NC(C)(C)CF)cc2c1 (stereo not drawn) [Example 99]
≥ 60%: pest or weed control at 200 ppm (Phytophthora infestans) | pest or weed control at 200 ppm (Plasmopara viticola) | pest or weed control at 200 ppm [1] | pest or weed control at 200 ppm [2] | pest or weed control at 200 ppm (Pyrenophora teres) | pest or weed control at 200 ppm (Septoria nodorum) | inhibition of growth at 60 ppm (Septoria tritici) | inhibition of growth at 60 ppm (Fusarium culmorum)

C#Cc1cnc2cc(F)c(OC(SC)C(=O)NC(C)(C)C)cc2c1 (stereo not drawn) [Example 104]
≥ 60%: pest or weed control at 200 ppm (Phytophthora infestans) | pest or weed control at 200 ppm (Plasmopara viticola) | pest or weed control at 200 ppm [1] | pest or weed control at 200 ppm [2] | pest or weed control at 200 ppm (Pyrenophora teres) | pest or weed control at 200 ppm (Septoria nodorum) | inhibition of growth at 60 ppm (Septoria tritici) | inhibition of growth at 60 ppm (Fusarium culmorum) | inhibition of growth at 20 ppm (Pythium ultimum)

C#Cc1cnc2cc(F)c(OC(SC)C(=O)NC(C)(C)C#C)cc2c1 (stereo not drawn) [Example 106]
≥ 60%: pest or weed control at 200 ppm (Phytophthora infestans) | pest or weed control at 200 ppm (Plasmopara viticola) | pest or weed control at 200 ppm [1] | pest or weed control at 200 ppm [2] | pest or weed control at 200 ppm (Pyrenophora teres) | pest or weed control at 200 ppm (Septoria nodorum) | inhibition of growth at 60 ppm (Septoria tritici) | inhibition of growth at 60 ppm (Fusarium culmorum) | inhibition of growth at 20 ppm (Pythium ultimum)

C#Cc1cnc2cc(F)c(OC(SC)C(=O)NC(C)(C)COC)cc2c1 (stereo not drawn) [Example 108]
≥ 60%: pest or weed control at 200 ppm (Phytophthora infestans) | pest or weed control at 200 ppm (Plasmopara viticola) | pest or weed control at 200 ppm [1] | pest or weed control at 200 ppm [2] | pest or weed control at 200 ppm (Pyrenophora teres) | pest or weed control at 200 ppm (Septoria nodorum) | inhibition of growth at 60 ppm (Septoria tritici) | inhibition of growth at 60 ppm (Fusarium culmorum)

C#CCOCC(C)(C)NC(=O)C(Oc1cc2cc(C#C)cnc2cc1F)SC (stereo not drawn) [Example 109]
≥ 60%: pest or weed control at 200 ppm (Phytophthora infestans) | pest or weed control at 200 ppm (Plasmopara viticola) | pest or weed control at 200 ppm [1] | pest or weed control at 200 ppm [2] | pest or weed control at 200 ppm (Pyrenophora teres) | pest or weed control at 200 ppm (Septoria nodorum) | inhibition of growth at 60 ppm (Septoria tritici) | inhibition of growth at 60 ppm (Fusarium culmorum)

C#Cc1cnc2c(C)cc(OC(CC)C(=O)NC(C)(C)C#C)cc2c1 (stereo not drawn) [Example 114]
≥ 60%: pest or weed control at 200 ppm (Phytophthora infestans) | pest or weed control at 200 ppm (Plasmopara viticola) | pest or weed control at 200 ppm [1] | pest or weed control at 200 ppm [2] | pest or weed control at 200 ppm (Pyrenophora teres) | pest or weed control at 200 ppm (Septoria nodorum) | inhibition of growth at 60 ppm (Septoria tritici) | inhibition of growth at 60 ppm (Fusarium culmorum)

C#Cc1cnc2c(C)cc(OC(CC)C(=O)NC(C)(C)C)cc2c1 (stereo not drawn) [Example 115]
≥ 60%: pest or weed control at 200 ppm (Phytophthora infestans) | pest or weed control at 200 ppm (Plasmopara viticola) | pest or weed control at 200 ppm [1] | pest or weed control at 200 ppm [2] | pest or weed control at 200 ppm (Pyrenophora teres) | pest or weed control at 200 ppm (Septoria nodorum) | inhibition of growth at 60 ppm (Septoria tritici) | inhibition of growth at 60 ppm (Fusarium culmorum)

C#Cc1cnc2ccc(OC(SC)C(=O)NC(C)(C)C#CCC)cc2c1 (stereo not drawn) [Example 117]
≥ 60%: pest or weed control at 200 ppm (Phytophthora infestans) | pest or weed control at 200 ppm (Plasmopara viticola) | pest or weed control at 200 ppm [1] | pest or weed control at 200 ppm [2] | pest or weed control at 200 ppm (Pyrenophora teres) | pest or weed control at 200 ppm (Septoria nodorum) | inhibition of growth at 60 ppm (Septoria tritici) | inhibition of growth at 60 ppm (Fusarium culmorum) | inhibition of growth at 20 ppm (Pythium ultimum)

C#Cc1cnc2c(Br)cc(OC(SC)C(=O)NC(C)(C)C#C)cc2c1 (stereo not drawn) [Example 130]
≥ 60%: pest or weed control at 200 ppm (Phytophthora infestans) | pest or weed control at 200 ppm (Plasmopara viticola) | pest or weed control at 200 ppm [1] | pest or weed control at 200 ppm [2] | pest or weed control at 200 ppm (Pyrenophora teres) | pest or weed control at 200 ppm (Septoria nodorum) | inhibition of growth at 60 ppm (Septoria tritici) | inhibition of growth at 60 ppm (Fusarium culmorum) | inhibition of growth at 20 ppm (Pythium ultimum)

C#Cc1cnc2c(C)cc(OC(SC)C(=O)NC(C)(C#C)COC)cc2c1 (stereo not drawn) [Example 135]
≥ 60%: pest or weed control at 200 ppm (Phytophthora infestans) | pest or weed control at 200 ppm (Plasmopara viticola) | pest or weed control at 200 ppm [1] | pest or weed control at 200 ppm [2] | pest or weed control at 200 ppm (Pyrenophora teres) | pest or weed control at 200 ppm (Septoria nodorum) | inhibition of growth at 60 ppm (Septoria tritici) | inhibition of growth at 20 ppm (Pythium ultimum)

CSC(Oc1ccc2ncc(C#CCF)cc2c1)C(=O)NC(C)(C)C (stereo not drawn) [Example 144]
≥ 60%: pest or weed control at 200 ppm (Phytophthora infestans) | pest or weed control at 200 ppm (Plasmopara viticola) | pest or weed control at 200 ppm [1] | pest or weed control at 200 ppm (Pyrenophora teres) | pest or weed control at 200 ppm (Septoria nodorum) | inhibition of growth at 60 ppm (Septoria tritici) | inhibition of growth at 60 ppm (Fusarium culmorum) | inhibition of growth at 20 ppm (Pythium ultimum)

C#Cc1cnc2ccc(OC(SC)C(=O)NC3(C)CCC3)cc2c1 (stereo not drawn) [Example 202]
≥ 60%: pest or weed control at 200 ppm (Phytophthora infestans) | pest or weed control at 200 ppm (Plasmopara viticola) | pest or weed control at 200 ppm [1] | pest or weed control at 200 ppm [2] | pest or weed control at 200 ppm (Pyrenophora teres) | pest or weed control at 200 ppm (Septoria nodorum) | inhibition of growth at 60 ppm (Septoria tritici) | inhibition of growth at 20 ppm (Pythium ultimum)

C#Cc1cnc2c(Cl)cc(OC(SC)C(=O)NC3(C)CCC3)cc2c1 (stereo not drawn) [Example 203]
≥ 60%: pest or weed control at 200 ppm (Phytophthora infestans) | pest or weed control at 200 ppm (Plasmopara viticola) | pest or weed control at 200 ppm [1] | pest or weed control at 200 ppm [2] | pest or weed control at 200 ppm (Pyrenophora teres) | pest or weed control at 200 ppm (Septoria nodorum) | inhibition of growth at 60 ppm (Septoria tritici) | inhibition of growth at 20 ppm (Pythium ultimum)
